According to PubChem BioAssay (NCI):
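Growth conditions: 96-well plates. Treatment: test compound, 48 hours, 5 concentrations. Analysis: linear interpolation between bracketing concentrations; unreached endpoints set to highest concentration. TGI: total growth inhibition.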

What was measured:
Assay in all cases: growth of human tumour cells (NCI), 48 h
NCI/ADR-RES ovarian = tested on: NCI/ADR-RES ovarian
BT-549 breast = tested on: BT-549 breast
HL-60(TB) leukemia = tested on: HL-60(TB) leukemia
SK-MEL-28 melanoma = tested on: SK-MEL-28 melanoma
UO-31 renal = tested on: UO-31 renal
786-0 renal = tested on: 786-0 renal
TK-10 renal = tested on: TK-10 renal
SNB-75 CNS = tested on: SNB-75 CNS
LOX IMVI melanoma = tested on: LOX IMVI melanoma
K-562 leukemia = tested on: K-562 leukemia

Row | SMILES | TGI (NCI/ADR-RES ovarian) [µM] | TGI (BT-549 breast) [µM] | TGI (HL-60(TB) leukemia) [µM] | TGI (SK-MEL-28 melanoma) [µM] | TGI (UO-31 renal) [µM] | TGI (786-0 renal) [µM] | TGI (TK-10 renal) [µM] | TGI (SNB-75 CNS) [µM] | TGI (LOX IMVI melanoma) [µM] | TGI (K-562 leukemia) [µM]
1 | CCc1nc2ccc(NCCN(C)C)c3c(=O)c4ccccc4n1c23 | 3.38 | 21.2 | 8.68 | 9.43 | 10 | 7.66 | 12.2 | 11.9 | 2.63 | 22
2 | C/C1=C\C=C(\C(C)C)CC/C(C(=O)O)=C\CC/C(C)=C/CC1 | 76.2 | 79.9 | 56.8 | 56.3 | 53.8 | 65.9 | > 100 | > 100 | 49.5 | 74.8
3 | COc1cc2nc(-c3cccs3)[nH]c(=O)c2cc1OC | > 100 | > 100 | > 100 | > 100 | > 100 | > 100 | > 100 | > 100 | > 100 | > 100
4 | COc1ccc(C(C2=C(O)COC2=O)c2cc3c(cc2O)OCO3)cc1OC (centres undefined) | > 100 | > 100 | > 100 | > 100 | > 100 | > 100 | > 100 | > 100 | > 100 | > 100
5 | O=[N+]([O-])c1ccc(O)c(/C=N/NC(=S)N2CCCCC2)c1 | 3.85 | 63.4 | > 42.1 | > 100 | 4.58 | 13.8 | 44 | 33.1 | 17.1 | > 100
6 | COc1ccc(/C=C/C2=NN(c3cccc(S(=O)(=O)O)c3)C3(C2)SCC(=O)N3c2nc3ccccc3s2)cc1 (centres undefined) | > 100 | > 100 | > 100 | > 100 | > 100 | > 100 | > 100 | > 100 | > 100 | > 100
7 | Fc1cccc(F)c1C1SCc2nc3ccc(Cl)cc3n21 (centres undefined) | > 100 | > 100 | > 100 | > 100 | > 100 | > 100 | > 100 | > 100 | > 100 | > 100
8 | C(=C\N1CCCCC1)/c1nnnn1-c1ccccc1 | 64.5 | > 100 | 37.7 | > 100 | > 100 | > 100 | > 100 | 69.7 | 50.9 | > 100
9 | CN(C)c1cc[n+](-c2nc(/N=C(\[O-])C(F)(F)F)nc3c2ncn3C2CC(O)C(CO)O2)cc1 (centres undefined) | > 100 | > 100 | > 100 | > 100 | > 100 | > 100 | > 100 | > 100 | > 100 | > 100
10 | NC(Cc1ccc(S(=O)(=O)O)cc1)C(=O)NC(Cc1ccc(S(=O)(=O)O)cc1)C(=O)O (centres undefined) | > 100 | > 100 | > 100 | > 100 | > 100 | > 100 | > 100 | > 100 | > 100 | > 100
11 | CCOc1cc(NC(C)=O)ccc1C(=O)NN1C(=O)CSC1c1ccccc1 (centres undefined) | > 100 | > 100 | > 100 | > 100 | > 100 | > 100 | > 100 | > 100 | > 100 | > 100
12 | C[Si](C)(C)C1=C([Si](C)(C)C)C(Cl)(Cl)C1=O | 27.1 | 16.1 | 1.53 | 9.29 | 8.45 | 10 | 5.27 | 24.9 | 3.51 | 2.88
13 | c1cnc(N2CCN(Cc3c[nH]c4ccccc34)CC2)nc1 | > 100 | > 100 | > 100 | > 100 | > 100 | 31.9 | > 100 | > 100 | > 100 | > 100
14 | CSc1c(C(=O)Nc2ccc(Cl)cc2)c(N)n(N)c(=O)c1C#N | > 100 | > 100 | > 100 | > 100 | > 100 | > 100 | > 100 | > 100 | > 100 | > 100
15 | COc1ccccc1C[C@@H]1OC2(C=CC(=O)C=C2)O[C@H]1Cc1ccccc1OC | 18.4 | 11.5 | 29.8 | 16.1 | 12.7 | 4.29 | 27.4 | 17.6 | 13.8 | > 50
16 | O=C(CCc1ccccc1)ON1C(=S)C(c2ccccc2)(c2ccccc2)N=C1Sc1ccccc1 | > 100 | > 100 | > 100 |  | > 100 | > 100 | > 100 | > 100 | 42.4 | > 100
17 | CC(C)C1N(C)c2ccc(Cl)cc2[C@H]2c3ccccc3CCN12 (some centres undefined) | > 100 | > 100 | > 100 | > 100 | > 100 | > 100 | > 100 | > 100 | 55.7 | > 100
18 | CCN(CC)c1ccc(/C=C/C=C2C(=O)NC(=S)NC2=O)cc1 | 41.8 | > 75.4 | 11 | > 100 | > 100 | > 100 | > 100 | > 100 | > 100 | > 75.1
19 | CCn1c(SCC(=O)NNC(=S)NC)nc2ccccc2c1=O | > 100 | > 100 | > 100 | > 100 | > 100 | > 100 | > 100 | > 100 | > 100 | > 100
20 | CC1CC(=O)N(N(C)C)C(C#N)(C#N)C1(C#N)C#N (centres undefined) | 55 | 32.7 | 4.83 | 34.3 | 31.3 | 28.6 | 30.3 | > 51 | 42.7 | > 66.3
21 | Cc1ccc2c(c1)C(=O)C(C1OC(=O)c3ccccc31)C2 (centres undefined) | > 100 | > 100 | > 100 | > 100 | > 100 | > 100 | > 100 | > 100 | > 100 | > 100
